Test results as given in patent US11708283B2, “Metal-chelating compositions and their use in methods of removing or inhibiting barium scale” (CORNELL UNIVERSITY, priority 2018, dated 2023).
Like-named read-outs stand apart in the source and are kept apart here.

Tests used:
[1] = cited from earlier work
[2] = literature values, cited from earlier work; for log Ka1 / log Ka2 / log Ka3 / log Ka4: I = 0.1M KCl (footnotes b, c, d)
[3] = Dissolution of barium sulfate suspension (GFAAS); settings: for BaSO4 dissolved: 30 minutes
Protocol: First, a suspension of BaSO4 in pH 8 NaHCO3 was formed by combining Ba(NO3)2 (4.53 mM) with excess Na2SO4 (13.48 mM), simulating the mixing of incompatible waters that produces BaSO4 scale in petroleum operations. The resulting BaSO4 suspension was treated with ligand (5 mM), and the amount of dissolved Ba^2+ was measured by GFAAS.
More specifically. BaSO4 dissolution experiments at pH 8 were performed in NaHCO3 (1 M, pH=7.9-8.0); dissolution studies at pH 11 were performed in Na2CO3 (1 M, pH adjusted to 10.98 using concentrated HCl). […] The concentration of the DOTA stock solution was calculated from the mass of the ligand used (255.5 mg). A solution of Na2SO4 (293 mM) was prepared in water. The barium source for this experiment was an ICP standard solution of Ba(NO3)2 (72.99 mM; 10023 μg/mL) in 2% v/v HNO3.
Dissolution studies were carried out in 2 mL borosilicate vials equipped with identical magnetic stir bars (6.4×3 mm). Each BaSO4 suspension was prepared independently by mixing Ba(NO3)2 and Na2SO4 in 1 M NaHCO3 or Na2CO3 to give final concentrations of 4.53 mM (621,426 μg/L) and 13.48 mM, respectively. Dissolution was initiated by the addition of an aliquot of ligand (5 mM final concentration, 1.1 equiv with respect to Ba^2+) to each suspension. Controls (pH 8) received an aliquot of water instead of ligand. The suspensions were stirred at room temperature (22±1° C.) at a rate of 550 RPM. At time points of 5 min (pH 11 only), 10 min, 20 min, and 30 min, the suspensions were filtered through nylon syringe filters (either 0.2 μm or 0.22 μm), and the filtrates were analyzed as described below. The dissolution experiments were performed in triplicate at every time point for each ligand except DOTA, for which 6 replicates were run for 20 min and 30 min time points at pH 8.
The filtered samples were diluted 6565-fold (65×101) with water and analyzed for barium content by GFAAS using the furnace method and instrument parameters discussed earlier above. Standards containing both ligand and barium at the same concentrations employed in the dissolution studies were prepared in either NaHCO3 (pH 8) or Na2CO3 (pH 11); water was substituted for Na2SO4. […] Water was used as the diluent. Following calibration, each sample was analyzed in triplicate and averaged. After the analysis of every three samples, a single measurement of water was made to ensure that there was no carryover of barium. After every three (pH 11) or six (pH 8) samples were analyzed, an independently-prepared Ba-L standard was analyzed a maximum of two times as a quality control check. If the measurement was not within ±10% of the known concentration of barium, the instrument was re-calibrated and the data between the failed calibration check and the previous calibration check was excluded. Data from each time point were averaged and the results are reported as the percentage of barium dissolved. The errors given correspond to 1 standard deviation.

[4] = cited from earlier work; remark: listed apart in the source
[5] = Thermodynamic stability constants of Ba^2+ complexes by pH-potentiometry; type: binding; settings: for pBa (−log [M^2+]free): [M^2+] = 10^−6M, [L] = 10^−5M; for pBa (−log [M^2+]free) / log KBaH2L / log KBaHL / log KBaL / major species present at pH 7.4 in the presence of Ba^2+: 25° C.; for pBa (−log [M^2+]free) / log K′Ba (conditional stability constant) / log KBaH2L / log KBaHL / log KBaL: I = 0.1M KCl; for log K′Ba (conditional stability constant): pH 7.4, 25° C., calculated from protonation and stability constants; for log KBaH2L / log KBaHL / log KBaL: pH-potentiometry; for major species present at pH 7.4 in the presence of Ba^2+: speciation, [Ba^2+]tot=[L]tot=1.0 mM, I=0.1 M KCl
Protocol: Potentiometric measurements were carried out using a titrator equipped with a combination electrode and an exchange unit with an automatic burette (10 mL). The titration vessel was fitted with a removable glass cell (˜70 mL) and was thermostated at 25° C. using a circulating water bath. CO2 was excluded from the vessel prior to and during the titrations using a small positive pressure of Ar that was passed through a solution of 30 wt % KOH. […] Hydrochloric acid (0.1 M) was standardized against freshly prepared KOH. […] Before every titration, the electrode was calibrated in terms of hydrogen ion concentration by titrating a solution of standardized HCl (5 mM) containing supporting electrolyte (95 mM) with standardized KOH (2 mL).
ICP standards of calcium, strontium, and barium in dilute HNO3 were employed in the titrations. […] Stability constants were measured for the alkaline earth complexes of macropa^2− and macropaquin^2− by adding standardized KOH to a solution (20 mL) containing ligand (0.02 mmol), metal (0.02 mmol), 1 M KCl (1.9 mmol), and a portion of 0.1 M HCl sufficient to bring the total acid content (HCl+HNO3) to 0.1 mmol. The titration method employed either a 0.1 mV/min or 0.2 mV/min drift limit with a maximum wait time of 300 seconds between addition of base and measurement. […] These pH ranges reflect the portion of the titration curves in which metal binding is occurring. Using the protonation constants measured for each ligand, the stability constants (Equations 2-4, below) were calculated from the average of at least 3 independent titrations using appropriate software. Proton concentration was admitted as a refineable parameter. […] The errors given for the stability constants correspond to one standard deviation.
The alkaline earth stability constants for macroquin-SO3^4− were determined using a system in which each ligand titration was paired with a ligand-metal titration. These pairwise titrations permitted the ligand concentration for the metal-ligand titrations to be known with reasonable certainty from the refinement of the ligand-only titrations. […] The same titration method was employed as described above for macropa^2− and macropaquin^2−. […] Stability constants were calculated as described above.
Log conditional constants (log K′) of the alkaline earth complexes at pH 7.4 were calculated using the experimentally determined protonation and stability constants. These constants are expressed by the following equation:
In the above equation, [(ML)′]=[ML]+[MHL]+[MH2L], and [HnL]=[L], [HL], [H2L] . . . [HnL].

[6] = Dissolution of barite ore in columns (ligand efficiency, GFAAS); settings: ~48 mM ligand, soak 1 hour
[7] = literature values (footnotes b, c)
[8] = bracketed literature value, I = 0.1M KNO3 (footnote e)

log KBaH2L [5]	log KBaHL [5]	log KBaL [5]	major species present at pH 7.4 in the presence of Ba^2+ [5]	Compound	log Ka1 [2]	log Ka2 [2]	log Ka3 [2]	log Ka4 [2]	BaSO4 dissolved ([3]; pH 8, RT, 5 mM ligand)	pBa (−log [M^2+]free) ([5]; pH 7.4)	log K′Ba (conditional stability constant) [5]	further results
–	–	–	–	O=C(O)CN1CCN(CC(=O)O)CCN(CC(=O)O)CCN(CC(=O)O)CC1 [DOTA, reference compound]	11.14	9.69	4.85	3.95	40%	6.76	5.72	log KSrHL [1, 7]: 4.52; BaSO4 dissolution ([3]; pH 11, 30 min): 75%; log KCaHL [4, 7]: 3.60
3.28(2)	9.76(2)	10.87	MHL	O=C(O)c1cccc(CN2CCOCCOCCN(Cc3ccc4cccc(O)c4n3)CCOCCOCC2)n1 [macropaquin, 6-((16-((8-hydroxyquinolin-2-yl)methyl)-1,4,10,13-tetraoxa-7,16-diazacyclooctadecan-7-yl)methyl)picolinic acid]	–	–	–	–	95%	11.01	10.05	–
7.80(2)	9.24(7)	10.44	MH2L	O=S(=O)(O)c1ccc(O)c2nc(CN3CCOCCOCCN(Cc4ccc5c(S(=O)(=O)O)ccc(O)c5n4)CCOCCOCC3)ccc12 [macroquin-SO3, 2,2′-((1,4,10,13-tetraoxa-7,16-diazacyclooctadecane-7,16-diyl)bis(methylene))bis(8-hydroxyquinoline-5-sulfonic acid)]	–	–	–	–	–	9.72	8.76	–

Compound	log KBaH2L [5]	log KBaHL [5]	log KBaL [5]	major species present at pH 7.4 in the presence of Ba^2+ [5]	log Ka1 [2]	log Ka2 [2]	log Ka3 [2]	log Ka4 [2]	BaSO4 dissolved ([3]; pH 8, RT, 5 mM ligand)	pBa (−log [M^2+]free) ([5]; pH 7.4)	log K′Ba (conditional stability constant) [5]	further results
O=C(O)c1cccc(CN2CCOCCOCCN(Cc3cccc(C(=O)O)n3)CCOCCOCC2)n1 [macropa, 6,6-((1,4,10,13-tetraoxa-7,16-diazacyclooctadecane-7,16-diyl)bis(methylene))dipicolinic acid]	2.49(7)	3.76(2)	11.11	–	(7.41)^d	(6.85)	(3.32)	(2.36)	complete dissolution	11.69	10.74	ligand efficiency (percent of ligand saturated with Ba^2+) ([6]; pH 8, barite 3 g): 40%; ligand efficiency (percent of ligand saturated with Ba^2+) ([6]; pH 11, barite 3 g): 40%; log KSrHL [1, 8]: [4.16]; log KSrL [1, 8]: [9.57]; log Ka5 ([2]; I = 0.1M KCl (footnotes c, d)): (1.69); BaSO4 solubilized ([3]; pH 8, RT, 5 mM ligand, 10 minutes): 78%; BaSO4 solubilized ([3]; pH 11, 5 min): > 95%; log KCaL [4, 8]: [5.25]^e; log KBaL lower than that for DOTA by [5]: 0.64 log units; Ba^2+ bound by ligand ([5]; pH 4.0, speciation): 90%; Ba^2+ complexed by ligand ([5]; pH 5.1, speciation): 99%; log K′Ba greater than those for DOTA and DTPA by ([5]; pH 7.4): 5-6 orders of magnitude; selectivity for Ba^2+ over Ca^2+ (ratio of pM values) ([5]; pH 7.4): 1.79 fold; selectivity for Ba^2+ over Sr^2+ (ratio of pM values) ([5]; pH 7.4): 1.17 fold
